The text below walks through data of US8546392B2, “17Beta-hydroxysteroid dehydrogenase type 1 inhibitors for the treatment of hormone-related diseases” (Universitaet des Saarlandes, priority 2008, dated 2013).

Data set [1] has as its target 17β-HSD2 (Homo sapiens (Human), UniProt P37059). In words: 17β-HSD2 test assay (recombinant protein from Sf9 insect cells, 3H-estradiol/NAD+). Format: biochemical. As to conditions: for inhibition at 0.1 µM: read-out: HSD2 100 nM (% inhibition); for inhibition at 1 µM: read-out: HSD2 1 μM (% inhibition). The procedure: Recombinant protein obtained from Sf9 insect cells (0.1 μg/ml) is incubated with 20 mM KH2PO4, pH 7.4, 30 nM ^3H-estradiol and 1 mM NAD+ for 30 min at RT in the presence of the potential inhibitor in a concentration of 1 μM or 100 nM. The stock solutions of the compounds are prepared in DMSO so that the final concentration of DMSO in the sample is 1%. After the prescribed incubation time, the reaction is quenched by adding trichloroacetic acid (10% final concentration). The samples are centrifuged in microtitration plates at 400 rpm for 10 min, and the supernatants are charged on a reversed-phase HPLC equipped with a Waters Symmetrie C18 column and
Waters Sentry Guard column. The isocratic HPLC run is performed at RT with a flow rate of 1 ml/min and acetonitrile/water 48:52 as the eluent. The radioactivity was measured by means of a Packard Flow Scintillation Analyzer. The percent inhibition was calculated by means of the formulas stated above.

For data set [2], the target named is 17β-HSD1 (Homo sapiens (Human), UniProt P14061). Briefly: 17β-HSD1 test assay (recombinant protein from Sf9 insect cells, 3H-estrone/NADPH). It is filed as biochemical. As to conditions: for inhibition at 1 µM: read-out: HSD 1 μM (% inhibition of HSD1); for inhibition at 0.1 µM: read-out: HSD1 100 nM (% inhibition). The procedure:
Recombinant protein obtained from Sf9 insect cells (0.1 μg/ml) is incubated with 20 mM KH2PO4, pH 7.4, 30 nM ^3H-estrone and 1 mM NADPH for 30 min at RT in the presence of the potential inhibitor in a concentration of 1 μM or 100 nM. The stock solutions of the compounds are prepared in DMSO (dimethylsulfoxide) so that the final concentration of DMSO in the sample is 1%. After the prescribed incubation time, the reaction is quenched by adding trichloroacetic acid (10% final concentration). The samples are centrifuged in microtitration plates at 400 rpm for 10 min, and the supernatants are charged on a reversed-phase HPLC equipped with a Waters Symmetrie C18 column and Waters Sentry Guard column. The isocratic HPLC run is performed at RT with a flow rate of 1 ml/min and acetonitrile/water 48:52 as the eluent. The radioactivity was measured by means of a Packard Flow Scintillation Analyzer. […]

Data set [3] deals with estrogen receptor β (Homo sapiens (Human), UniProt Q92731). In words: Estrogen receptor binding assay, ERβ.
Sequence of estrogen receptor β (Q92731 whole entry): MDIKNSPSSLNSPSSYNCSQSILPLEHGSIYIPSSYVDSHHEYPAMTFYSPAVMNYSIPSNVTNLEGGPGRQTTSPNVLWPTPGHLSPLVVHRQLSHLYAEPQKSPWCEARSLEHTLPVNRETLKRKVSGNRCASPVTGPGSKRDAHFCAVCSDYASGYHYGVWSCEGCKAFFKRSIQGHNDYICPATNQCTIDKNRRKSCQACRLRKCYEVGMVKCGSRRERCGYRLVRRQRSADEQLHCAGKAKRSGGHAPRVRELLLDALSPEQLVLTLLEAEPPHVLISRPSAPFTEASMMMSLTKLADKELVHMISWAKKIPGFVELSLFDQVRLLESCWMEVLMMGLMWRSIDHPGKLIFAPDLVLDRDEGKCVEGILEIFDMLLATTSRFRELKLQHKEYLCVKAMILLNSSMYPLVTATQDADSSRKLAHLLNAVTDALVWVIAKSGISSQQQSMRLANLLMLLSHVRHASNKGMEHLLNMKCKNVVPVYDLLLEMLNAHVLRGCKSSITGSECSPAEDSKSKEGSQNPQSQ
Data set [4] has as its target estrogen receptor α (Homo sapiens (Human), UniProt P03372). Briefly: Estrogen receptor binding assay, ERα.
Data set [5] in a line: In vivo pharmacokinetics (rat), cassette dosing method. The settings on record: cassette dosing perorally 10 mg/kg, male Wistar rats; for AUC(0-t) / Tmax / AUC(0-inf): rat, plasma, po; for AUC(0-inf): extrapolated to ∞. An excerpt: Labrasol/water 1/1). The plasma profiles were established by means of LC-MS/MS.
Setting [6] is: relative binding affinity (estradiol: 100%).

The structures appear in SMILES notation. Where two headings read alike, the source gives them in different places.

Sequence of 17β-HSD1 (P14061 whole entry): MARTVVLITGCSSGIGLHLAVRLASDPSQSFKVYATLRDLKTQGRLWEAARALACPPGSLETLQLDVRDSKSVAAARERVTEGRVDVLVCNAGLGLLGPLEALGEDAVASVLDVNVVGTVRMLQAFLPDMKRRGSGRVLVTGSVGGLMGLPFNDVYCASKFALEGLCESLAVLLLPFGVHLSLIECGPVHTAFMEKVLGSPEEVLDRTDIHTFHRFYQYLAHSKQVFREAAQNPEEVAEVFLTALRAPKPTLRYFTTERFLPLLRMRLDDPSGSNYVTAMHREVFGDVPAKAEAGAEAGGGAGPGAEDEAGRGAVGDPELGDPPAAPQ
Sequence of 17β-HSD2 (P37059 whole entry): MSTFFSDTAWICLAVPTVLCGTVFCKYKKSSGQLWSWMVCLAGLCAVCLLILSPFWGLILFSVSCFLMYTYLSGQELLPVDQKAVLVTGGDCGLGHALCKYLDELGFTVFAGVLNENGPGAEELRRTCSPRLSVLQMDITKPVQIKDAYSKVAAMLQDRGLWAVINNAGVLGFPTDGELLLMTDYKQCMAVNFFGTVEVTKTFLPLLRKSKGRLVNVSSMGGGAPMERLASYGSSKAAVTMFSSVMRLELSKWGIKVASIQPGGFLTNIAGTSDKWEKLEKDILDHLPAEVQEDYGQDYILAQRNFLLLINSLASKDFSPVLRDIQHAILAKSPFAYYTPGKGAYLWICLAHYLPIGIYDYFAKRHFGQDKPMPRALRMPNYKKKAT
Sequence of estrogen receptor α (P03372 whole entry): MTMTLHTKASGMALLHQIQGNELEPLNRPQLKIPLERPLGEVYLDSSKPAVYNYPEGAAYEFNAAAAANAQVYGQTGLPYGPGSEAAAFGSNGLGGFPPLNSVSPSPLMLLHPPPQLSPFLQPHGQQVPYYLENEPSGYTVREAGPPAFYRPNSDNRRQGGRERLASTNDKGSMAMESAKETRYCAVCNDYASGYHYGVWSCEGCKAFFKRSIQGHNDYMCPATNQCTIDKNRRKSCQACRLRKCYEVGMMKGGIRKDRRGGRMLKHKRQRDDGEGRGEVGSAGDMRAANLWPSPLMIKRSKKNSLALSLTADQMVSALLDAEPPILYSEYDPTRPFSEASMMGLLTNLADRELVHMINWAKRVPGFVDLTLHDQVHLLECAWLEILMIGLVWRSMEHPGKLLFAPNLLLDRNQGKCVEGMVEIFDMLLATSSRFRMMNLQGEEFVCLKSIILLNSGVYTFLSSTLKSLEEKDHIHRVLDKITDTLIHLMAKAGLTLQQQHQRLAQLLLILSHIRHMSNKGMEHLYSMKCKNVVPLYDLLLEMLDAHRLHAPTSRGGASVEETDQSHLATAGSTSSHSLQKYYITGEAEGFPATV

Take `CNC(=O)/C=C/c1c(O)ccc2cc(-c3cccc(O)c3)ccc12` [Compound 39, (E)-3-(2-Hydroxy-6-(3-hydroxyphenyl)naphthalene-1-yl)-N-methylacrylamide]: the inhibition at 0.1 µM in data set [1] (inhibitor 100 nM) was determined as 33.9%; in data set [2] (inhibitor 100 nM), 19.2%. Moreover, the inhibition at 1 µM was found to be 73.2% in data set [1] (inhibitor 1 μM) and 57.6% in data set [2] (inhibitor 1 μM).

`O=C(/C=C/c1c(O)ccc2cc(-c3cccc(O)c3)ccc12)Nc1ccccc1` [Compound 40, (E)-3-(2-Hydroxy-6-(3-hydroxyphenyl)naphthalene-1-yl)-N-phenylacrylamide]: the inhibition at 0.1 µM in data set [1] (inhibitor 100 nM) is 28.1%; in data set [2] (inhibitor 100 nM), less than 10%. In addition, the figures for the inhibition at 1 µM in data set [1] (inhibitor 1 μM) and in data set [2] (inhibitor 1 μM) were 76.9% and 60.4%, respectively.

On to `CNC(=O)c1c(O)ccc2cc(-c3cccc(O)c3)ccc12` [Compound 41, 2-Hydroxy-6-(3-hydroxyphenyl)-N-methyl-1-naphthamide], for which the inhibition at 0.1 µM was less than 10% in data set [1] (inhibitor 100 nM) and 21.8% in data set [2] (inhibitor 100 nM). The inhibition at 1 µM was found to be 21.6% in data set [1] (inhibitor 1 μM) and 76.3% in data set [2] (inhibitor 1 μM).

Take `O=C(Nc1cccc(O)c1)c1c(O)ccc2cc(-c3cccc(O)c3)ccc12` [Compound 43, 2-Hydroxy-N,6-bis(3-hydroxyphenyl)-1-naphthamide]: the inhibition at 0.1 µM was less than 10% in data set [1] (inhibitor 100 nM) and 20.5% in data set [2] (inhibitor 100 nM). Also, the inhibition at 1 µM was less than 10% in data set [1] (inhibitor 1 μM) and 69.9% in data set [2] (inhibitor 1 μM).

Regarding `Cc1nnc(NC(=O)c2c(O)ccc3cc(-c4cccc(O)c4)ccc23)s1` [Compound 48, 2-Hydroxy-6-(3-hydroxyphenyl)-N-(5-methyl-1,3,4-thiadiazol-2-yl)-1-naphthamide], the results for the inhibition at 1 µM in data set [1] (inhibitor 1 μM) and in data set [2] (inhibitor 1 μM) were 24% and 68%, respectively.

As to `Oc1cccc(-c2ccc3c(Br)c(O)ccc3c2)c1` [Compound 52, 1-Bromo-6-(3-hydroxyphenyl)naphthalene-2-ol], the inhibition at 0.1 µM in data set [1] (inhibitor 100 nM) amounted to 19%; in data set [2] (inhibitor 100 nM), 82.9%. The inhibition at 1 µM in data set [1] (inhibitor 1 μM) is 69%; in data set [2] (inhibitor 1 μM), 88.4%. Moreover, in data set [3] (setting [6]), the “RBA ERβ [%]” value turned out to be 0.10%. The “RBA ERα [%]” value in data set [4] (setting [6]) is 0.081%.

Consider `N#Cc1cc(-c2cccc(O)c2)cc2ccc(O)cc12` [Compound 53, 7-Hydroxy-3-(3-hydroxyphenyl)-1-naphthonitrile], for which the inhibition at 0.1 µM in data set [1] (inhibitor 100 nM) was 18%; in data set [2] (inhibitor 100 nM) it was 32.3%. The inhibition at 1 µM was 67% in data set [1] (inhibitor 1 μM) and 74.4% in data set [2] (inhibitor 1 μM).

As for `CNC(=O)CCc1c(O)ccc2cc(-c3cccc(O)c3)ccc12` [Compound 55, 3-(2-Hydroxy-6-(3-hydroxyphenyl)naphthalene-1-yl)-N-methylpropanamide], the inhibition at 0.1 µM in data set [1] (inhibitor 100 nM) and in data set [2] (inhibitor 100 nM) was less than 10% throughout. Further, the values for the inhibition at 1 µM in data set [1] (inhibitor 1 μM) and in data set [2] (inhibitor 1 μM) were 35.8% and 80%, respectively.

Regarding `Oc1cccc(-c2ccc3c(-c4ccccc4)c(O)ccc3c2)c1` [Compound 56, 6-(3-Hydroxyphenyl)-1-phenyl-2-naphthol], the inhibition at 0.1 µM in data set [1] (inhibitor 100 nM) was 22.1%. Moreover, the inhibition at 1 µM in data set [1] (inhibitor 1 μM) was 77.2%. In addition, the inhibition at 1 µM in data set [2] (inhibitor 1 μM) was 89.4%. Besides, the inhibition at 0.1 µM in data set [2] (inhibitor 100 nM) turned out to be 76.2%. Moreover, in data set [3] (setting [6]), the “RBA ERβ [%]” value was found to be 0.044%. In addition, the “RBA ERα [%]” value in data set [4] (setting [6]) turned out to be 0.055%. In addition, in data set [5], the “T1/2z” value was determined as 5.9 h, the “tz” value is recorded as 24.0 h, the AUC(0-t) was 11700 ng·h/mL and the Tmax amounted to 4 h. Also, the area under the curve AUC(0-inf) in data set [5] is 12700 ng·h/mL.

Consider `Oc1cccc(-c2ccc3c(-c4cccc(O)c4)c(O)ccc3c2)c1` [Compound 57, 1,6-Bis(3-hydroxyphenyl)naphthalene-2-ol], for which, in data set [1], the inhibition at 0.1 µM is less than 10% and the inhibition at 1 µM was 40.1%. Further, the inhibition at 1 µM in data set [2] (inhibitor 1 μM) was determined as 92.6%. For the same molecule, the inhibition at 0.1 µM in data set [2] (inhibitor 100 nM) was 82.9%. Besides, in data set [3] (setting [6]), the “RBA ERβ [%]” value is 0.020%. For the same molecule, the “RBA ERα [%]” value in data set [4] (setting [6]) was 0.0013%. Besides, in data set [5], the “T1/2z” value was found to be 0.9 h, the “tz” value is reported as 10.0 h, the AUC(0-t) is 10700 ng·h/mL and the Tmax came to 6 h. Moreover, in data set [5], the AUC(0-inf) was 10700 ng·h/mL.

In the case of `Oc1cccc(-c2ccc3c(-c4ccoc4)c(O)ccc3c2)c1` [Compound 58, 1-(Furan-3-yl)-6-(3-hydroxyphenyl)naphthalene-2-ol], the inhibition at 0.1 µM turned out to be 60.6% in data set [1] (inhibitor 100 nM) and 83% in data set [2]. Moreover, the results for the inhibition at 1 µM in data set [1] (inhibitor 1 μM) and in data set [2] were 92.3% and 89.1%, respectively. Further, in data set [3], the “RBA ERβ [%]” value is 0.024%. Further, in data set [4], the “RBA ERα [%]” value is 0.022%.

Turning to `Oc1cccc(-c2ccc3c(-c4ccncc4)c(O)ccc3c2)c1` [Compound 60, 6-(3-Hydroxyphenyl)-1-(pyridin-4-yl)naphthalene-2-ol], the results for the inhibition at 0.1 µM in data set [1] (inhibitor 100 nM) and in data set [2] were 12.2% and 74.4%, respectively. In addition, the inhibition at 1 µM worked out at 48.5% in data set [1] (inhibitor 1 μM) and 85.9% in data set [2]. For the same molecule, the “RBA ERβ [%]” value in data set [3] (setting [6]) was 0.003%. The “RBA ERα [%]” value in data set [4] (setting [6]) came out at 0.0068%.

For the molecule `Oc1cccc(-c2ccc3c(-c4cncnc4)c(O)ccc3c2)c1` [Compound 61, 6-(3-Hydroxyphenyl)-1-(pyrimidin-5-yl)naphthalene-2-ol], the inhibition at 0.1 µM was 15.5% in data set [1] (inhibitor 100 nM) and less than 10% in data set [2] (inhibitor 100 nM). In addition, the values for the inhibition at 1 µM in data set [1] (inhibitor 1 μM) and in data set [2] (inhibitor 1 μM) were 51.7% and 22.1%, respectively.

In the case of `O=C(O)c1cccc(-c2c(O)ccc3cc(-c4cccc(O)c4)ccc23)c1` [Compound 63, 3-(2-Hydroxy-6-(3-hydroxyphenyl)naphthalene-1-yl)benzoic acid], the inhibition at 0.1 µM was less than 10% in data set [1] (inhibitor 100 nM) and 44.7% in data set [2] (inhibitor 100 nM). Further, the inhibition at 1 µM in data set [1] (inhibitor 1 μM) was found to be 34.2%; in data set [2] (inhibitor 1 μM), 80%.

As for `CS(=O)(=O)Nc1cccc(-c2c(O)ccc3cc(-c4cccc(O)c4)ccc23)c1` [Compound 64, N-(3-(2-Hydroxy-6-(3-hydroxyphenyl)naphthalene-1-yl)phenyl)methanesulfonamide], the inhibition at 0.1 µM in data set [1] (inhibitor 100 nM) was 31.1%. Besides, the inhibition at 1 µM in data set [1] (inhibitor 1 μM) was found to be 71.3%. Further, in data set [2], the inhibition at 1 µM stood at 90.8% and the inhibition at 0.1 µM was 88.1%. Moreover, in data set [3], the “RBA ERβ [%]” value came out at 0.007%. For the same molecule, the “RBA ERα [%]” value in data set [4] is listed as 0.012%. In data set [5], the “T1/2z” value came to 1.1 h, the “tz” value came to 10.0 h, the area under the curve AUC(0-t) is 1330 ng·h/mL and the Tmax came out at 2 h. Moreover, the total exposure AUC(0-inf) in data set [5] was 1330 ng·h/mL.

`Oc1cccc(-c2ccc3c(-c4ccc(N5CCOCC5)cc4)c(O)ccc3c2)c1` [Compound 65, 6-(3-Hydroxyphenyl)-1-(4-morpholinophenyl)naphthalene-2-ol]: the inhibition at 0.1 µM in data set [1] (inhibitor 100 nM) amounted to 12.4%; in data set [2] (inhibitor 100 nM), 31.9%. The inhibition at 1 µM in data set [1] (inhibitor 1 μM) amounted to 31.9%; in data set [2] (inhibitor 1 μM) it was 64.9%.

In the case of `CC(=O)Nc1cccc(-c2c(O)ccc3cc(-c4cccc(O)c4)ccc23)c1` [Compound 66, N-(3-(2-Hydroxy-6-(3-hydroxyphenyl)naphthalene-1-yl)phenyl)acetamide], the inhibition at 0.1 µM was determined as 24.1% in data set [1] (inhibitor 100 nM) and 35.1% in data set [2] (inhibitor 100 nM). Moreover, the inhibition at 1 µM in data set [1] (inhibitor 1 μM) amounted to 63.6%; in data set [2] (inhibitor 1 μM), 81.5%.

With `O=C(O)CCC(=O)Nc1ccc(-c2c(O)ccc3cc(-c4cccc(O)c4)ccc23)cc1` [Compound 67, 4-(4-(2-Hydroxy-6-(3-hydroxyphenyl)naphthalene-1-yl)phenylamino)-4-oxobutanoic acid], the inhibition at 0.1 µM in data set [1] (inhibitor 100 nM) was 24.2%; in data set [2] (inhibitor 100 nM), less than 10%. The inhibition at 1 µM turned out to be 68% in data set [1] (inhibitor 1 μM) and 62.3% in data set [2] (inhibitor 1 μM).

For `O=S(=O)(Nc1nccs1)c1cccc(-c2c(O)ccc3cc(-c4cccc(O)c4)ccc23)c1` [Compound 69, 3-(2-Hydroxy-6-(3-hydroxyphenyl)naphthalene-1-yl)-N-(thiazol-2-yl)-benzenesulfonamide], the inhibition at 0.1 µM in data set [1] (inhibitor 100 nM) is 24%; in data set [2] (inhibitor 100 nM), 87%. The results for the inhibition at 1 µM in data set [1] (inhibitor 1 μM) and in data set [2] (inhibitor 1 μM) were 71% and 96.3%, respectively. Also, the “RBA ERβ [%]” value in data set [3] (setting [6]) came out at 0.010%. For the same molecule, in data set [4] (setting [6]), the “RBA ERα [%]” value was found to be 0.015%.
